Columns and labels:
[1] = test system: ethylene-induced epinasty in tomato plants; assay: Tomato epinasty test, volatile gas treatment; type: in vivo, Patio variety tomato seedlings; conditions: ethylene 10 ppm v/v injected four hours later, scored visually sixteen hours later, 10 = complete protection, 0 = no protection; for Gas @ 10 ppm: degree of protection against ethylene-induced epinasty, rating on a scale of 0 to 10: compound as volatile gas at 10 ppm v/v
Description: (§1) Objective: The test procedure is designed to determine the ability of an experimental compound to block the epinastic growth response induced by ethylene in tomato plants when the experimental compound is administered either as a volatile gas or as a component of a spray solution.
(§2) Treatment chambers are of an appropriate size for the test plants and are airtight. Each is fitted with a reusable septum to be used for injection of ethylene. Test plants are Patio variety tomato seedlings planted two plants per three inch square plastic pot.
Volatile gas treatment entails placing two pots of Patio var. tomatoes into a polystyrene 4.8 L volume treatment chamber along with one-half (upper or lower section) of a 50×9 mm plastic Petri dish containing a Gelman filter pad. The appropriate amount of experimental compound, dissolved in 1.0 ml acetone, is pipetted onto the filter pad and the chamber immediately sealed. Four hours later ethylene gas equal to 10 ppm v/v final concentration is injected into the sealed chamber. Sixteen hours later the chambers are opened in an exhaust hood, allowed to air and the plants scored visually for the degree of protection against ethylene-induced epinasty conferred by the experimental compound when compared to ethylene treated and untreated controls on a scale of 0 to 10. A rating of 10 means complete protection. A rating of 0 means no protection from the effects of ethylene. Gas treatment concentrations are volume/volume.

[2] = test system: ethylene-induced epinasty in tomato plants; assay: Tomato epinasty test, spray application treatment; type: in vivo, Patio variety tomato seedlings; conditions: spray at 10 ppm in 10% acetone/90% water with 0.05% Silwett L-77; air-dried four hours; ethylene 10 ppm v/v; scored visually sixteen hours later; 10 = complete protection, 0 = no protection
Description: as §1, §2
Spray application treatment entails using a DeVilbiss atomizer to completely cover all foliage and stems of two pots of Patio var. tomato plants with the appropriate amount of experimental compound dissolved in 10% acetone/90% water with 0.05% Silwett L-77 surfactant. Plants are air-dried in a drying hood for four hours then transferred to a 4.8 L polystyrene chamber which is sealed.
Ethylene gas equal to 10 ppm v/v final concentration is injected into the sealed chamber. Sixteen hours later the chambers are opened in an exhaust hood, allowed to air and the plants scored visually for the degree of protection against ethylene-induced epinasty conferred by the experimental compound when compared to ethylene treated and untreated controls on a scale of 0 to 10. A rating of 10 means complete protection. […]

Compound | Gas @ 10 ppm: degree of protection against ethylene-induced epinasty, rating on a scale of 0 to 10 [1] | Spray @ 10 ppm: degree of protection against ethylene-induced epinasty, rating on a scale of 0 to 10 [2] | Gas @ 1000 ppm: degree of protection against ethylene-induced epinasty, rating on a scale of 0 to 10 ([1]; compound as volatile gas at 1000 ppm v/v)
C1=C2CCCCCC12 (centres unmarked) [Compound 1, Bicyclo[5.1.0]oct-1(8)-ene] | 8 | 0 | –
CCCCCCCCC1=CC12OCC(C)(C)CO2 [Compound 2, 6.6-Dimethyl-1-octyl-4.8-dioxa-spiro[2.5]oct-1-ene] | 0 | 0 | 4

Reference: patent US7041625B2, “Method to inhibit ethylene responses in plants” (Rohm and Haas Company, priority 2003, dated 2006)
